{
  "source": "patent US20060281806A1",
  "about": "“Treatment and inhibition of disease conditions using flexible heteroarotinoids” (priority 2005, published 2006)",
  "key": {"[1]": {"test_system": "NCI human tumor cell line panel", "test": "SHetA2 cytotoxicity in NCI human tumor cell line panel", "type": "cell-based", "conditions": "48 h", "protocol": "The SHetA2 compound was evaluated in the National Cancer Institute (NCI) human tumor cell line panel by the Developmental Therapeutics Program (DTP). The human tumor cell lines were grown in RPMI 1640 medium containing 5% fetal bovine serum and 2 mM L-glutamine. Cells were inoculated into 96 well microtiter plates at densities ranging from 5,000 to 40,000 cells/well depending on the doubling time of individual cell lines and incubated for 24 h prior to addition of SHetA2. After 24 h, two plates of each cell line were fixed in situ with TCA, to represent a measurement of the cell population for each cell line at the time of drug addition (Tz). Drugs were dissolved in dimethyl sulfoxide (DMSO) and diluted in complete medium containing 50 μg/ml gentamicin, prior to addition to the culture wells. […] […] The absorbance was read on an automated plate reader at a wavelength of 515 nm. Using the seven absorbance measurements (time zero, (Tz), control growth, (C), and test growth in the presence of drug at the five concentration levels (Ti)), the GI50 was calculated from [(Ti−Tz)/(C−Tz)]×100=50. […]"}, "[2]": {"test_system": "Raldh2 −/− embryos", "test": "Rescue of Raldh2 −/− embryos and teratogenesis", "type": "in vivo, mouse", "conditions": "for No. of −/− rescued / No. of −/− unrescued / Teratogenesis (no. of embryos): E10.25 embryos", "protocol": "Dosages varied from 0.025 to 25 mg/kg."}, "[3]": {"conditions": "dose 2.5 mg/kg oral to pregnant mice"}, "[4]": {"conditions": "dose 10 mg/kg oral to pregnant mice"}, "[5]": {"conditions": "dose 25 mg/kg oral to pregnant mice"}},
  "data": [
    {"compound": "CC1(C)CC(C)(C)c2cc(NC(=S)Nc3ccc([N+](=O)[O-])cc3)ccc2S1", "note": "[SHetA2]", "values": [
      {"measurement": "percent growth", "setting": "[1]; 10 and 100 μM SHetA2, majority of cell lines", "result": "negative percent growth levels"},
      {"measurement": "GI50 values", "setting": "[1]; 55 cell lines representing 9 cancer types", "result": "micromolar range"},
      {"measurement": "rescue of Raldh2 −/− embryos (phenotype)", "setting": "[2]; 2.5 mg/kg to pregnant mothers", "result": "no rescue"},
      {"measurement": "rescue of Raldh2 −/− embryos (phenotype)", "setting": "[2]; 10 or 25 mg/kg to pregnant mothers", "result": "no rescue"},
      {"measurement": "teratogenesis in litters", "setting": "[2]; any dosage (2.5, 10, 25 mg/kg)", "result": "no teratogenesis was observed"},
      {"measurement": "No. of −/− rescued", "setting": "[2]; [3]", "result": 0},
      {"measurement": "No. of −/− unrescued", "setting": "[2]; [3]", "result": 1},
      {"measurement": "Teratogenesis (no. of embryos)", "setting": "[2]; [3]", "result": 0},
      {"measurement": "No. of −/− rescued", "setting": "[2]; [4]", "result": 0},
      {"measurement": "No. of −/− unrescued", "setting": "[2]; [4]", "result": 5},
      {"measurement": "Teratogenesis (no. of embryos)", "setting": "[2]; [4]", "result": 0},
      {"measurement": "No. of −/− rescued", "setting": "[2]; [5]", "result": 0},
      {"measurement": "No. of −/− unrescued", "setting": "[2]; [5]", "result": 1},
      {"measurement": "Teratogenesis (no. of embryos)", "setting": "[2]; [5]", "result": 0}
    ]}
  ]
}
